In patent US6878751B1, “Administration of resveratrol to treat inflammatory respiratory disorders” (Imperial College of Science Technology and Medicine, priority 2000, dated 2005):

Assays:
[1] = tested on: iNOS mRNA; assay: iNOS mRNA expression by RT-PCR in cytomix-treated primary epithelial cells; format: cell-based, human; conditions: primary epithelial cells treated 4 hours with cytomix
Method: Human primary epithelial cells are cultured from normal donor tissue. Explant cultures of tissue obtained from normal human lung transplant donors provided human primary epithelial (HPE) cells. The HPE cells were cultured in Ham's F12 nutrient medium containing 5% (v/v) fetal calf serum (FCS), 1 μM hydrocortisone, 5 ng/ml EGF (epithelial growth factor), 10 μg/ml insulin, 10 nM retinoic acid, 0.5 μg/ml transferrin, 2 μg/ml triiodothyronine, 1.5 μg/ml NaHCO3, 100 μg/ml penicillin, 100 μg/ml streptomycin and 0.25 μg/m amphotericin B; the cells were incubated at 37° C. in a humidified atmosphere containing 95% (v/v) air, 5% (v/v) CO2. The HPE cells were cultured for the last 24 hours prior to the experimental treatments under the same conditions except that additive free Ham's F12 media was substituted for the supplemented Ham's F12 media described above.
Expression of mRNA for iNOS was evaluated by RT-PCR of RNA extracted from the cells using the Qiagen RNeasy mini kit as directed by the manufacturer (Crawley, Sussex, U.K.). RT-PCR was performed according to routine methods. […]

[2] = tested on: Patients with asthma; assay: Pulmonary resveratrol clinical evaluation in asthma (Example 4); format: in vivo, human; conditions: inhaled, 4, 8 or 20 mg/day, about six months
Method: Resveratrol is evaluated clinically for efficacy in treating asthma when administered pulmonarily. The methods of the following references are generally used in the evaluation of asthmatic disease: Wohl et al. (2000) N. Engl. J. Med. 343(15):1113-4; Agertoft et al. (2000) N. Engl. J. Med 343(15):1064-9. Patients with asthma are treated once or more per day with inhalator delivered pulmonary administered doses of resveratrol. Patients are divided randomly and blindly into approximately equal groups that receive either 0 (placebo), 4, 8, or 20 mg/day resveratrol in inhaled doses of 0, 1, 2, or 5 mg administered 4 times daily for about six months. Patients are medically monitored for clinical symptoms of asthma throughout the study, including frequency and severity of acute asthma attacks. […] In addition exhaled nitric oxide (NO) and carbon monoxide (CO) levels may be measured at more frequent intervals, such as every other week. Forced expiratory volume (FEV) and forced inspiratory volume (FIV) are also evaluated to measure airway patency as a direct measure of clinical morbidity and to determine correlation the histopathologic and other indicators of clinical disease, such as exhaled NO Immunhistopathologic examination of lung tissue biopsy samples taken at the same intervals as the blood samples are also examined for histopathologic evidence of extent and histology of inflammation.

[3] = tested on: IL-8 release, A549 cells; assay: IL-8 release (ELISA) in IL-1β stimulated A549 cells; format: cell-based; conditions: Homo sapiens, 1 ng/ml IL-1β, read-out: EC50 for inhibition of the release of IL-8
Method: The human airway epithelial cell line A549 may be employed to study resveratrol inhibition of the release of IL-8 (interleukin 8) and GM-CSF (granulocyte macrophage-colony stimulating factor) by a 1 ng/ml stimulation with IL-1β (interleukin 1β). A549 cells, BEAS-2B cells and 16HBE-16o^− cells were stimulated with 1 ng/ml levels of IL-1β in the presence of resveratrol.
Cells, including the A549 cells, were cultured in Dulbecco's modified Eagle's medium (DMEM) 10% (v/v) fetal calf serum (FCS), 100 μg/ml penicillin and 100 μg/ml streptomycin. IL-8 release was measured by commercially available ELISA kit (R&D Systems).

Oc1ccc(/C=C/c2cc(O)cc(O)c2)cc1 [Resveratrol, 3,5,4′-trihydroxystilbene]
inhibition of iNOS expression as measured by mRNA [1]: inhibited iNOS expression
efficacy in treating asthma [2]: effective for treating asthma
EC50 [3]: 72 ± 11 µM
